How the values were obtained:
[1] = Chemical stability in phosphate buffered saline (PBS); assay type: physicochemical; conditions: 50 μM prodrug
Method: (§1) Chemical stability of creatine prodrugs in phosphate buffered saline (PBS), simulated intestinal fluid (SIF) without pancreatin, simulated gastric fluid (SGF) without pepsin were determined by LC-UV, LC-CAD, LC-UV-CAD or LC-MS/MS as appropriate. Creatine prodrugs of the present disclosure (50 μM) were incubated at 37° C. according to described protocols and prodrug levels were compared between t=0, t=15, t=60, and t=120 mins by peak area ratio to determine the percentage remained at t=120 mins (2 h).
(§2) Protocol for PBS, SIF and SGF stability for screening:
(§3) Prodrugs (50 μM) were incubated in PBS, FaSSIF (Biorelevant) or FaSSGF (Biorelevant) at 37° C.

[2] = Chemical stability in simulated gastric fluid (SGF) without pepsin; assay type: physicochemical; conditions: 50 μM prodrug
Method: as §1, §2, §3

[3] = Liver microsome stability, mouse; assay type: in vitro ADME; conditions: liver microsomes, read-out: Microsome Stability Mouse t1/2
Method: (§4) The stabilities of creatine prodrugs can be evaluated in one or more in vitro systems using a variety of preparations following methods known in the art. Experimental conditions useful for the in vitro studies are described in Table 1. Prodrug is added to each preparation in triplicate. […]
(§5) Protocol for Microsomal Stability:
(§6) For reference compound, a 500 μM spiking solution was prepared: add 10 μL of 10 mM DMSO stock solution into 190 μL ACN. […] For test compound, a 5 mM spiking solution was prepared: add 10 μL of 10 mM DMSO stock solution into 10 μL ACN. […] NADPH stock solution (6 mM) was prepared by dissolving NADPH into buffer 0.1 M Potassium Phosphate buffer, 1.0 mM EDTA, pH 7.4. […] For 0-min, 135 μL of ACN containing IS was added to the wells of 0-min plate and then 15 μL of NADPH stock solution (6 mM) was added. 15 μL of NADPH stock solution (6 mM) was added to the samples designated as 0-, 5-, 10-, 20-, 30-min, 60-min; 15 μL of buffer 0.1 M Potassium Phosphate buffer, 1.0 mM EDTA, pH 7.4, was added to the samples designated as 60-min without NADPH. At 5-min, 10-min, 20-min, and 30-min, 60-min 135 μL of ACN containing IS was added to the wells of corresponding plates, respectively, to stop the reaction. […] 50 μL of the supernatant from each well was transferred into a 96-well sample plate containing 50 μL of ultra pure water (Millipore, ZMQS50FOI) and analyzed by LC/MS.

[4] = Plasma stability, human plasma; assay type: in vitro ADME; conditions: 37 °C, read-out: Plasma Stability Human t1/2
Method: as §4
(§7) Protocol for plasma stability for early screen macrocycles (Method A):
(§8) Frozen plasma was thawed by placing at 37° C. quickly and centrifuged at 3,000 rpm for 8 minutes to remove clots. Then the supernatant was pipetted and pooled as the plasma to be used in the experiment. The plasma was placed on ice until used. The test compounds and reference compounds spiking solution was prepared as a 2.5 mM test compounds spiking solution A: Add 20 μL of 10 mM test compounds stock solution to 60 μL DMSO. 0.1 mM Spiking solution B was prepared: Add 40 μL of spiking solution A to 960 μL of […] Sodium phosphate buffer with 0.5% BSA. […] For 0-min, 400 μL of ACN containing IS was added to the wells of 0-min plate and then 90 μL of plasma was added. […] 50 μL of the supernatant was transferred from each well into a 96-well sample plate containing 120 μL of ultra pure water (Millipore, ZMQS50F01) and analyzed by LC/MS.
(§9) Protocol for plasma stability (Method B):
(§10) The frozen plasma was thawed in a 37° C. water bath and then, if needed, adjusted to pH=7.4 then preheated in a 37° C. incubator. The test article was dissolved in 10% DMSO/water and spiked into plasma pre-plated into 96 well plates at a final concentration of 1 μM. Discrete incubations were performed at 37° C. and included 5 time points: t=0, 2, 5, 15, and 30 min. Samples were then crashed with 4× volume, ice cold 20% water/80% acetonitrile and spun at 4000 g for 10 mins. The supernatant was dried down and reconstituted with water and analyzed by LC-MS/MS. The half life in minute was calculated.

[5] = Liver microsome stability, human; assay type: in vitro ADME; conditions: liver microsomes, read-out: Microsome Stability Human t1/2
Method: as §4, §5, §6

[6] = Plasma stability, mouse plasma; assay type: in vitro ADME; conditions: 37 °C, read-out: Plasma Stability Mouse t1/2
Method: as §4, §7, §8, §9, §10

Compound | Chemical Stability PBS % T0 at 2 hours at 37 °C. ([1]; Table 2A) [%] | Chemical Stability PBS % T0 at 2 hours at 37 °C. ([1]; Table 2B) [%] | Chemical Stability SGF, no enzyme % T0 at 2 hours at 37 °C. ([2]; Table 2A) [%] | Chemical Stability SGF, no enzyme % T0 at 2 hours at 37 °C. ([2]; Table 2B) [%] | half-life at 10 μM ([3]; pH 7.4, Table 2A) [h] | half-life at 10 μM ([3]; pH 7.4, Table 2B) [h] | half-life ([4]; Table 2A) [h] | half-life at 10 μM ([5]; pH 7.4, Table 2A) [h] | half-life at 10 μM ([5]; pH 7.4, Table 2B) [h] | half-life ([6]; Table 2A) [h] | half-life ([4]; Table 2B) [h] | half-life ([6]; Table 2B) [h]
Cl.[2H]C([2H])([2H])N(CC(=O)OC(C)(C)C)C(=N)NC(=O)CCCCCCCCCC [Compound 44] | 42 | 107 | 86 | 95 | < 0.0833 | < 0.0833 | 1.67 | 0.15 | 0.15 | 0.133 | – | –
[2H]C([2H])([2H])N(CC(=O)OCC)/C(=N\C(=O)OC(C)(C)C)NC(=O)CCCCCCCCCC [Compound 47] | 55 | – | 32 | – | 0.0833 | – | 2.82 | 0.267 | – | < 0.0833 | – | –
[2H]C([2H])([2H])N(CC(=O)[O-])C(=N)NC(=O)CCCCCCCC.[Na+] [Compound 36] | 106 | – | 99 | – | > 2.42 | – | > 3 | 1.7 | – | > 3 | – | –
[2H]C([2H])([2H])N(CC(=O)[O-])C(=N)NC(=O)CCCCCCCCCCCC.[Na+] [Compound 29] | 64 | – | 91 | – | 1.83 | – | > 3 | 0.983 | – | > 3 | – | –
[2H]C([2H])([2H])N(CCO)C(=N)NC(=O)CCCCCCCCCC [Compound 9] | 0 | – | 99 | – | < 0.0833 | – | > 3 | < 0.0833 | – | 0.55 | – | –
[2H]C([2H])([2H])N(CC(=O)[O-])C(=N)NC(=O)CCCCC/C=C\CCCCCCCCCC.[Na+] [Compound 26] | 45 | – | 95 | – | > 2.42 | – | > 3 | 1.13 | – | > 3 | – | –
[2H]C([2H])([2H])N(CC(=O)[O-])C(=N)NC(=O)CCCC/C=C\CCCCCCCCCCC.[Na+] [Compound 25] | 89 | – | 72 | – | > 2.42 | – | > 3 | > 2.42 | – | > 3 | – | –
[2H]C([2H])([2H])N(CC(=O)[O-])C(=N)NC(=O)CCCCCCCC.[Li+] [Compound 35] | 116 | – | 86 | – | > 2.42 | – | > 3 | 1.08 | – | > 3 | – | –
[2H]C([2H])([2H])N(CC(=O)[O-])C(=N)NC(=O)CCCCCCCCCCC.[Na+] [Compound 31] | 98 | – | 98 | – | > 2.42 | – | > 3 | 0.983 | – | > 3 | – | –
[2H]C([2H])([2H])N(CC(=O)O)C(=N)NC(=O)CCCCCCC/C=C\CCCCCC [Compound 28] | 51 | – | 99 | – | 1.4 | – | > 3 | 1.5 | – | > 3 | – | –
[2H]C([2H])([2H])N(CC(=O)O)C(=N)NC(=O)c1cccnc1 [Compound 21] | 105 | – | 74 | – | > 2.42 | – | > 3 | > 2.42 | – | > 3 | – | –
[2H]C([2H])([2H])N(CC(=O)[O-])C(=N)NC(=O)CCCCCCC.[Na+] [Compound 38] | 101 | – | 99 | – | > 2.42 | – | > 3 | > 2.42 | – | > 3 | – | –
[2H]C([2H])([2H])N(CC(=O)[O-])C(=N)NC(=O)CCCCCCCCCC/C=C\CCCCC.[Na+] [Compound 27] | 67 | – | 96 | – | 0.167 | – | > 3 | 0.233 | – | > 3 | – | –
[2H]C([2H])([2H])N(CC(=O)[O-])C(=N)NC(=O)CCCCCCCCCC.[K+] [Compound 33] | 85 | – | 79 | – | 1.77 | – | > 3 | 1.2 | – | > 3 | – | –

The next lines start with the values.

Chemical Stability PBS % T0 at 2 hours at 37 °C. ([1]; Table 2A) [%] | Chemical Stability PBS % T0 at 2 hours at 37 °C. ([1]; Table 2B) [%] | Chemical Stability SGF, no enzyme % T0 at 2 hours at 37 °C. ([2]; Table 2A) [%] | Chemical Stability SGF, no enzyme % T0 at 2 hours at 37 °C. ([2]; Table 2B) [%] | half-life at 10 μM ([3]; pH 7.4, Table 2A) [h] | half-life at 10 μM ([3]; pH 7.4, Table 2B) [h] | half-life ([4]; Table 2A) [h] | half-life at 10 μM ([5]; pH 7.4, Table 2A) [h] | half-life at 10 μM ([5]; pH 7.4, Table 2B) [h] | half-life ([6]; Table 2A) [h] | half-life ([4]; Table 2B) [h] | half-life ([6]; Table 2B) [h] | Compound
– | 78 | – | 89 | – | > 1.5 | – | – | > 1.5 | – | > 3 | > 3 | [2H]C([2H])([2H])N(CC(=O)[O-])C(=N)NC(=O)CCCCCCCCCC(C)O.[Na+] (centres unmarked) [Compound 57]
– | 106 | – | 99 | – | < 0.0833 | – | – | < 0.0833 | – | < 0.0833 | < 0.0833 | [2H]C([2H])([2H])N(CC(=O)OC(C)(C)C(C)(C)O)C(=N)NC(=O)CCCCCCCCCC [Compound 61]
– | 58 | – | 101 | – | < 0.0833 | – | – | < 0.0833 | – | < 0.0833 | < 0.0833 | [2H]C([2H])([2H])N(CC(=O)OC(C)(C)C(C)(C)O)C(=N)NC(=O)CCCCCC [Compound 63]
– | 101 | – | 99 | – | < 0.0833 | – | – | < 0.0833 | – | > 3 | > 3 | [2H]C([2H])([2H])N(CC(=O)OC(C)(C)C(C)C)C(=N)NC(=O)CCCCCC [Compound 60]
– | 62 | – | 103 | – | < 0.0833 | – | – | < 0.0833 | – | > 3 | 1.27 | [2H]C([2H])([2H])N(CC(=O)OC(C)(C)C(C)C)C(=N)NC(=O)CCCCCCCCCC [Compound 62]
– | – | – | – | – | > 1.5 | – | – | > 1.5 | – | > 3 | > 3 | [2H]C([2H])([2H])N(CC(=O)[O-])C(=N)NC(=O)CCCCCCCCCO.[Na+] [Compound 58]
– | 58 | – | 81 | – | > 1.5 | – | – | > 1.5 | – | > 3 | > 3 | [2H]C([2H])([2H])N(CC(=O)[O-])C(=N)NC(=O)CCCCCCCCCCCO.[Na+] [Compound 56]
